In the supplement of paper PMC10307832:

Key:
Experiment in all cases: relative viability (nuclei count vs DMSO), 5 days (fraction); higher = more cells survive
PC-3 [JPC-3] = tested on: PC-3 [JPC-3]
Method in brief: (§1)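 Relative viability equals treated-well nuclei counts divided by vehicle-well nuclei counts. Counts came from 4× images of lung cancer cell lines grown in 1536-well plates for 5 days after pin-tool dosing on the day after seeding. Dosing used one drug alone or a fixed anchor-drug dose plus five library-drug doses (not always all listed) in √10 steps, and values are medians of duplicate plates.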

A-427 = tested on: A-427
Method in brief: as §1

NCI-H1915 = tested on: NCI-H1915
Method in brief: as §1

NCI-H2347 = tested on: NCI-H2347
Method in brief: as §1

SK-LU-1 = tested on: SK-LU-1
Method in brief: as §1

NCI-H1975 = tested on: NCI-H1975
Method in brief: as §1

NCI-H358 = tested on: NCI-H358
Method in brief: as §1

HCC-78 = tested on: HCC-78
Method in brief: as §1

NCI-H1734 = tested on: NCI-H1734
Method in brief: as §1

LXF-289 = tested on: LXF-289
Method in brief: as §1

NCI-H2126 = tested on: NCI-H2126
Method in brief: as §1

NCI-H1755 = tested on: NCI-H1755
Method in brief: as §1

HCC-15 = tested on: HCC-15
Method in brief: as §1

RERF-LC-KJ = tested on: RERF-LC-KJ
Method in brief: as §1

LC-2-ad = tested on: LC-2-ad
Method in brief: as §1

NCI-H647 = tested on: NCI-H647
Method in brief: as §1

HOP-62 = tested on: HOP-62
Method in brief: as §1

SW 1573 = tested on: SW 1573
Method in brief: as §1

NCI-H1792 = tested on: NCI-H1792
Method in brief: as §1

NCI-H2228 = tested on: NCI-H2228
Method in brief: as §1

Nc1ccn([C@@H]2O[C@H](CO)[C@@H](O)[C@@H]2O)c(=O)n1 [Cytarabine] + CS(=O)(=O)CCNCc1ccc(-c2ccc3ncnc(Nc4ccc(OCc5cccc(F)c5)c(Cl)c4)c3c2)o1 [Lapatinib] (partner 2 µM)
relative viability (PC-3 [JPC-3]; first compound 0.005 µM): 0.435
relative viability (PC-3 [JPC-3]; first compound 0.01581 µM): 0.465
relative viability (PC-3 [JPC-3]; first compound 0.05 µM): 0.426
relative viability (PC-3 [JPC-3]; first compound 0.1581 µM): 0.396
relative viability (PC-3 [JPC-3]; first compound 0.5 µM): 0.389
relative viability (A-427; first compound 0.005 µM): 0.93
relative viability (A-427; first compound 0.01581 µM): 0.565
relative viability (A-427; first compound 0.05 µM): 0.274
relative viability (A-427; first compound 0.1581 µM): 0.184
relative viability (A-427; first compound 0.5 µM): 0.183
relative viability (NCI-H1915; first compound 0.005 µM): 0.868
relative viability (NCI-H1915; first compound 0.01581 µM): 0.955
relative viability (NCI-H1915; first compound 0.05 µM): 0.848
relative viability (NCI-H1915; first compound 0.1581 µM): 0.393
relative viability (NCI-H1915; first compound 0.5 µM): 0.257
relative viability (NCI-H2347; first compound 0.005 µM): 1.01
relative viability (NCI-H2347; first compound 0.01581 µM): 0.942
relative viability (NCI-H2347; first compound 0.05 µM): 0.764
relative viability (NCI-H2347; first compound 0.1581 µM): 0.659
relative viability (NCI-H2347; first compound 0.5 µM): 0.825
relative viability (SK-LU-1; first compound 0.005 µM): 0.659
relative viability (SK-LU-1; first compound 0.01581 µM): 0.744
relative viability (SK-LU-1; first compound 0.05 µM): 0.697
relative viability (SK-LU-1; first compound 0.1581 µM): 0.345
relative viability (SK-LU-1; first compound 0.5 µM): 0.467
relative viability (NCI-H1975; first compound 0.005 µM): 0.644
relative viability (NCI-H1975; first compound 0.01581 µM): 1.05
relative viability (NCI-H1975; first compound 0.05 µM): 1.09
relative viability (NCI-H1975; first compound 0.1581 µM): 0.456
relative viability (NCI-H1975; first compound 0.5 µM): 0.372
relative viability (NCI-H358; first compound 0.005 µM): 0.471
relative viability (NCI-H358; first compound 0.01581 µM): 0.332
relative viability (NCI-H358; first compound 0.05 µM): 0.364
relative viability (NCI-H358; first compound 0.1581 µM): 0.199
relative viability (NCI-H358; first compound 0.5 µM): 0.176
relative viability (HCC-78; first compound 0.005 µM): 0.799
relative viability (HCC-78; first compound 0.01581 µM): 0.595
relative viability (HCC-78; first compound 0.05 µM): 0.353
relative viability (HCC-78; first compound 0.1581 µM): 0.308
relative viability (HCC-78; first compound 0.5 µM): 0.19
relative viability (NCI-H1734; first compound 0.005 µM): 0.628
relative viability (NCI-H1734; first compound 0.01581 µM): 0.341
relative viability (NCI-H1734; first compound 0.05 µM): 0.481
relative viability (NCI-H1734; first compound 0.1581 µM): 0.151
relative viability (NCI-H1734; first compound 0.5 µM): 0.134
relative viability (LXF-289; first compound 0.005 µM): 0.806
relative viability (LXF-289; first compound 0.01581 µM): 0.851
relative viability (LXF-289; first compound 0.05 µM): 0.809
relative viability (LXF-289; first compound 0.1581 µM): 0.429
relative viability (LXF-289; first compound 0.5 µM): 0.339
relative viability (NCI-H2126; first compound 0.005 µM): 0.73
relative viability (NCI-H2126; first compound 0.01581 µM): 0.701
relative viability (NCI-H2126; first compound 0.05 µM): 0.61
relative viability (NCI-H2126; first compound 0.1581 µM): 0.516
relative viability (NCI-H2126; first compound 0.5 µM): 0.449
relative viability (NCI-H1755; first compound 0.005 µM): 0.759
relative viability (NCI-H1755; first compound 0.01581 µM): 0.973
relative viability (NCI-H1755; first compound 0.05 µM): 0.8
relative viability (NCI-H1755; first compound 0.1581 µM): 0.259
relative viability (NCI-H1755; first compound 0.5 µM): 0.271
relative viability (HCC-15; first compound 0.005 µM): 0.785
relative viability (HCC-15; first compound 0.01581 µM): 0.887
relative viability (HCC-15; first compound 0.05 µM): 0.693
relative viability (HCC-15; first compound 0.1581 µM): 0.615
relative viability (HCC-15; first compound 0.5 µM): 0.639
relative viability (RERF-LC-KJ; first compound 0.005 µM): 0.885
relative viability (RERF-LC-KJ; first compound 0.01581 µM): 0.751
relative viability (RERF-LC-KJ; first compound 0.05 µM): 0.892
relative viability (RERF-LC-KJ; first compound 0.1581 µM): 0.569
relative viability (RERF-LC-KJ; first compound 0.5 µM): 0.47
relative viability (LC-2-ad; first compound 0.005 µM): 0.878
relative viability (LC-2-ad; first compound 0.01581 µM): 0.868
relative viability (LC-2-ad; first compound 0.05 µM): 0.926
relative viability (LC-2-ad; first compound 0.1581 µM): 0.26
relative viability (LC-2-ad; first compound 0.5 µM): 0.192
relative viability (NCI-H647; first compound 0.005 µM): 0.596
relative viability (NCI-H647; first compound 0.01581 µM): 0.411
relative viability (NCI-H647; first compound 0.05 µM): 0.27
relative viability (NCI-H647; first compound 0.1581 µM): 0.128
relative viability (NCI-H647; first compound 0.5 µM): 0.0883
relative viability (HOP-62; first compound 0.005 µM): 0.825
relative viability (HOP-62; first compound 0.01581 µM): 0.821
relative viability (HOP-62; first compound 0.05 µM): 0.385
relative viability (HOP-62; first compound 0.1581 µM): 0.134
relative viability (HOP-62; first compound 0.5 µM): 0.0735
relative viability (SW 1573; first compound 0.005 µM): 1.17
relative viability (SW 1573; first compound 0.01581 µM): 0.879
relative viability (SW 1573; first compound 0.05 µM): 0.952
relative viability (SW 1573; first compound 0.1581 µM): 0.606
relative viability (SW 1573; first compound 0.5 µM): 0.329
relative viability (NCI-H1792; first compound 0.005 µM): 0.878
relative viability (NCI-H1792; first compound 0.01581 µM): 0.874
relative viability (NCI-H1792; first compound 0.05 µM): 0.366
relative viability (NCI-H1792; first compound 0.1581 µM): 0.548
relative viability (NCI-H1792; first compound 0.5 µM): 0.47
relative viability (NCI-H2228; first compound 0.005 µM): 0.632
relative viability (NCI-H2228; first compound 0.01581 µM): 0.562
relative viability (NCI-H2228; first compound 0.05 µM): 0.315
relative viability (NCI-H2228; first compound 0.1581 µM): 0.183
relative viability (NCI-H2228; first compound 0.5 µM): 0.136
